Assay results published in patent US20220023401A1 (priority 2020, published 2022).
Several values for one entry are separate records, joined by “and”; a condition that tells them apart may be missing. Equal values may be shown once.

How the values were obtained:
[1] = tested on: sera from vaccinated baboons (anti-Aβ antibodies); assay type: binding
[2] = tested on: antisera from immunized Cynomolgus macaques; assay type: binding; design: unit not given here
[3] = tested on: HBsAg2 Th (SEQ ID NO: 45); design: species or system guinea pigs; conditions: guinea pig, in vivo
[4] = tested on: MvF4 Th (SEQ ID NO: 44); design: species or system guinea pigs; conditions: guinea pig, in vivo
[5] = tested on: Aβ1-42; design: species or system guinea pigs; conditions: guinea pig, in vivo
[6] = tested on: baboon anti-Aβ antibody; assay type: binding, baboons
[7] = tested on: Peripheral blood mononuclear cells (PBMC); assay type: cell-based, human
[8] = tested on: Peripheral Blood Mononuclear Cells (PBMCs); assay type: cell-based, Cynomolgus macaque
[9] = tested on: Peripheral blood mononuclear cells (PBMC); assay type: cell-based, human; remark: listed apart in the source

Row | Substance | ELISA Titer (Log10) [1] | Specificity analysis of antisera (ELISA reactivity with peptide) [2] | also measured
1 | ISEVKMDAEF (PEPTIDE (1)..(10) Abeta -6-4 or APP 770(I666-F675); listed as Homo sapiens) [SEQ ID NO: 11] | 0.20 Log10 and 0.15 Log10 and 0.13 Log10 | 0.055 and 0.058 and 0.063 and 0.062 | 
2 | Aβ1-14-ϵK-KKK-MvF4 Th [SEQ ID NO: 62] |  |  | HBsAg2 Th ELISA (SEQ ID NO: 45) Log10 Titer, Geomean [3]: 0.397 Log10; MvF4 Th ELISA (SEQ ID NO: 44) Log10 Titer [4]: 0.268 Log10 and 0.216 Log10 and 0.196 Log10 and 0.179 Log10 and 0.332 Log10 and 0.286 Log10; MvF4 Th ELISA (SEQ ID NO: 44) Log10 Titer, Geomean [4]: 0.240 Log10; reactivity against the two T helper epitopes (SEQ ID NOs: 44 and 45) [4]: little or no reactivity; Aβ1-42 ELISA (SEQ ID NO: 1) Log10 Titer, Geomean [5]: 4.208 Log10
3 | AEFRHDSGYE (PEPTIDE (1)..(10) Abeta 2-11 or APP 770(A673-E682); listed as Homo sapiens) [SEQ ID NO: 17] | 0.25 Log10 and 0.35 Log10 and 0.19 Log10 | 0.058 and 0.059 and 0.054 and 0.060 | Percent (%) Inhibition ELISA after peptide pre-absorption of sera [6]: 0%
4 | Aβ1-14-ϵK-HBsAg2 Th [SEQ ID NO: 63] |  |  | HBsAg2 Th ELISA (SEQ ID NO: 45) Log10 Titer, Geomean [3]: 0.375 Log10; MvF4 Th ELISA (SEQ ID NO: 44) Log10 Titer [4]: 0.575 Log10 and 0.423 Log10 and 0.380 Log10 and 0.279 Log10 and 0.336 Log10 and 0.425 Log10; MvF4 Th ELISA (SEQ ID NO: 44) Log10 Titer, Geomean [4]: 0.393 Log10; reactivity against the two T helper epitopes (SEQ ID NOs: 44 and 45) [4]: little or no reactivity; Aβ1-42 ELISA (SEQ ID NO: 1) Log10 Titer [5]: 3.596 Log10 and 3.653 Log10 and 3.696 Log10 and 3.681 Log10 and 3.836 Log10 and 3.744 Log10; Aβ1-42 ELISA (SEQ ID NO: 1) Log10 Titer, Geomean [5]: 3.700 Log10
5 | HDSGYEVHHQ (PEPTIDE (1)..(10) Abeta 6-15 or APP 770(H677-Q686); listed as Homo sapiens) [SEQ ID NO: 21] |  | 0.266 and 0.494 and 0.419 and 0.332 | 
6 | HHQKLVFFAE (PEPTIDE (1)..(10) Abeta 13-22 or APP 770(H684-E693); listed as Homo sapiens) [SEQ ID NO: 28] | 0.19 Log10 and 0.22 Log10 and 0.13 Log10 and 0.12 Log10 | 0.044 and 0.052 and 0.046 and 0.032 | 
7 | EVKMDAEFRH (PROPEP (1)..(10) Abeta -4-6 or APP 770(E668-H677); listed as Homo sapiens) [SEQ ID NO: 13] | 0.19 Log10 and 0.23 Log10 and 0.16 Log10 and 0.14 Log10 | 0.046 and 0.047 and 0.054 | 
8 | HQKLVFFAED (PEPTIDE (1)..(10) Abeta 14-23 or APP 770(H685-D694); listed as Homo sapiens) [SEQ ID NO: 29] | 0.18 Log10 and 0.21 Log10 and 0.13 Log10 | 0.050 and 0.058 and 0.047 | 
9 | MDAEFRHDSG (PEPTIDE (1)..(10) Abeta -1-9 or APP 770(M671-G680); listed as Homo sapiens) [SEQ ID NO: 16] | 0.26 Log10 and 0.32 Log10 and 0.16 Log10 and 0.17 Log10 | 0.056 and 0.061 and 0.051 | Percent (%) Inhibition ELISA after peptide pre-absorption of sera [6]: 8%
10 | YEVHHQKLVF (PEPTIDE (1)..(10) Abeta 10-19 or APP 770(Y681-F690); listed as Homo sapiens) [SEQ ID NO: 25] | 0.16 Log10 and 0.43 Log10 and 0.15 Log10 and 0.22 Log10 | 0.092 and 0.069 and 0.058 | 
11 | KMDAEFRHDS (PEPTIDE (1)..(10) Abeta -2-8 or APP 770(K670-S679); listed as Homo sapiens) [SEQ ID NO: 15] | 0.26 Log10 and 0.36 Log10 and 0.41 Log10 and 0.51 Log10 |  | 
12 | SEVKMDAEFR (PEPTIDE (1)..(10) Abeta -5-5 or APP 770(S667-R676); listed as Homo sapiens) [SEQ ID NO: 12] | 0.21 Log10 and 0.24 Log10 and 0.16 Log10 and 0.13 Log10 | 0.056 and 0.053 and 0.054 and 0.050 | 
13 | TEEISEVKMD (PEPTIDE (1)..(10) Abeta -9-1 or APP 770(T663-D672); listed as Homo sapiens) [SEQ ID NO: 8] | 0.23 Log10 and 0.26 Log10 and 0.16 Log10 and 0.15 Log10 | 0.075 and 0.084 and 0.061 and 0.078 | 
14 | SGYEVHHQKL (PEPTIDE (1)..(10) Abeta 8-17 or APP 770(S679-L688); listed as Homo sapiens) [SEQ ID NO: 23] |  | 0.097 and 0.071 and 0.077 and 0.082 | 
15 | VKMDAEFRHD (PEPTIDE (1)..(10) Abeta -3-7 or APP 770(V669-D678); listed as Homo sapiens) [SEQ ID NO: 14] | 0.27 Log10 and 0.46 Log10 and 0.48 Log10 and 0.55 Log10 | 0.068 and 0.053 and 0.061 and 0.054 | 
16 | RHDSGYEVHH (PEPTIDE (1)..(10) Abeta 5-14 or APP 770(R676-H685); listed as Homo sapiens) [SEQ ID NO: 20] | 0.23 Log10 and 0.34 Log10 and 0.27 Log10 and 0.41 Log10 | 0.296 and 0.400 and 0.453 and 0.461 | 
17 | phytohaemagglutinin [PHA] |  |  | IFN-γ mean cytokine concentration, Week 0 [7]: >320.00 pg/mL; IFN-γ mean cytokine concentration, Week 16 [7]: >318.91 pg/mL; IL-2 mean cytokine concentration, Week 0 [7]: 10.38^7 pg/mL; IL-2 mean cytokine concentration, Week 16 [7]: 12.84^7 pg/mL; IL-6 mean cytokine concentration, Week 0 [7]: >320.00 pg/mL; IL-6 mean cytokine concentration, Week 16 [7]: >320.00 pg/mL; IL-10 mean cytokine concentration, Week 0 [7]: 173.83 pg/mL; IL-10 mean cytokine concentration, Week 16 [7]: >162.77 pg/mL; TNF-α mean cytokine concentration, Week 0 [7]: >313.01 pg/mL; TNF-α mean cytokine concentration, Week 16 [7]: >300.87 pg/mL; IL-2 cytokine concentration [8]: 97.5 ± 6.6 pg/mL and 90.6 ± 12.4 pg/mL and 96.1 ± 13.3 pg/mL; IL-6 cytokine concentration [8]: 69.1 ± 12.0 pg/mL and 70.6 ± 15.7 pg/mL and 66.2 ± 7.3 pg/mL; TNF-α cytokine concentration [8]: 91.0 ± 29.1 pg/mL and 96.1 ± 22.2 pg/mL and 89.0 ± 13.7 pg/mL; Mean stimulation index, Difference [9]: −0.98; Mean stimulation index, Week 0 [9]: 28.73; Mean stimulation index, Week 16 [9]: 27.75; proliferation response by lymphocytes when added to the culture medium ([9]; 10 μg/mL): positive proliferation responses
18 | QKLVFFAEDV (PEPTIDE (1)..(10) Abeta 15-24 or APP 770(Q686-V695); listed as Homo sapiens) [SEQ ID NO: 30] |  | 0.043 and 0.055 and 0.062 and 0.059 | 
19 | FRHDSGYEVH (PEPTIDE (1)..(10) Abeta 4-13 or APP 770(F675-H684); listed as Homo sapiens) [SEQ ID NO: 19] | 0.20 Log10 and 0.40 Log10 and 0.22 Log10 and 0.30 Log10 | 0.085 and 0.076 and 0.066 and 0.096 | 
20 | GYEVHHQKLV (PEPTIDE (1)..(10) Abeta 9-18 or APP 770(G680-V689); listed as Homo sapiens) [SEQ ID NO: 24] | 0.13 Log10 and 0.27 Log10 and 0.19 Log10 and 0.12 Log10 | 0.055 and 0.067 and 0.052 and 0.059 | 
21 | EISEVKMDAE (PEPTIDE (1)..(10) Abeta -7-3 or APP 770(E665-E674); listed as Homo sapiens) [SEQ ID NO: 10] | 0.23 Log10 and 0.25 Log10 and 0.16 Log10 and 0.14 Log10 | 0.060 and 0.056 and 0.064 and 0.053 | 
22 | EFRHDSGYEV (PEPTIDE (1)..(10) Abeta 3-12 or APP 770(E674-V683); listed as Homo sapiens) [SEQ ID NO: 18] | 0.24 Log10 and 0.30 Log10 and 0.18 Log10 | 0.047 and 0.060 and 0.042 and 0.052 | Percent (%) Inhibition ELISA after peptide pre-absorption of sera [6]: 0% and 1% and 3%
23 | EEISEVKMDA (PEPTIDE (1)..(10) Abeta -8-2 or APP 770(E664-A673); listed as Homo sapiens) [SEQ ID NO: 9] | 0.24 Log10 and 0.30 Log10 and 0.21 Log10 and 0.22 Log10 | 0.082 and 0.092 and 0.081 and 0.076 | 
